Experimental data reported in article PMC8452690, “Structural basis for small molecule targeting of Doublecortin Like Kinase 1 with DCLK1-IN-1” (Communications Biology, 2021).
Changes are numbered by the printed parent chain. Marks after values point to notes of the source that are not given here.

Legend:
[1] = molecular target: T1, DCLK1-FL1Δ D511N (Homo sapiens, UniProt O15075, D511N); assay: SPR binding to immobilised DCLK1-FL1Δ D511N (non-phosphorylated); settings: for Kd / kon, kinetic fitting: SPR; for kon, kinetic fitting: DCLK1 FL1Δ D511N; for koff: read-out: koff, kinetic fitting; for kon: read-out: kon (Fig. 5c)
T1 construct: DCLK1-FL1Δ (residues 50-686); 8XHis tag with TEV protease cleavage site (N); made in house; host or cells: Escherichia coli C41(DE3)
T1 sequence (O15075 50-686 D511N): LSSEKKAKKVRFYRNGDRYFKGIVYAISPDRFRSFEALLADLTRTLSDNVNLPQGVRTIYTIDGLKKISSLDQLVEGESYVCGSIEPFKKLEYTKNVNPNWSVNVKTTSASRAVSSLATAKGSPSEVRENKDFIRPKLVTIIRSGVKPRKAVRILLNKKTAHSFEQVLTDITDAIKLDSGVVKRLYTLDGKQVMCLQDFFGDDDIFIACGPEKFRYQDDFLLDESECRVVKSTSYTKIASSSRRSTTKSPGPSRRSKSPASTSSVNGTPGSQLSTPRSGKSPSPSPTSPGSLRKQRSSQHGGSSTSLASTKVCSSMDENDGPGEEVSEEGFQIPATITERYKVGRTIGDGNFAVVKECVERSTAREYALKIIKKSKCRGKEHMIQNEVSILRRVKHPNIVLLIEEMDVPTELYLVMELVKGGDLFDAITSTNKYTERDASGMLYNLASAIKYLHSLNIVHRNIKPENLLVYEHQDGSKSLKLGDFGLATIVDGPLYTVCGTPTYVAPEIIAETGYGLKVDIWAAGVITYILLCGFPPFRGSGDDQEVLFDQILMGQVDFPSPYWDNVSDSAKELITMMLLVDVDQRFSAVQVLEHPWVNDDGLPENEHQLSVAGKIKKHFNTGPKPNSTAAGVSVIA
Procedure: (§1) SPR studies were carried out on a Biacore 2000 instrument (Cytivia). Proteins were immobilised at 25 °C using standard amine coupling to a CM5 chip (Cytivia) in immobilisation buffer consisting of 10 mM HEPES pH 7.4, 150 mM NaCl, 1 mM TCEP, 0.005% Tween P20, 1% (v/v) DMSO. To the active flow, cells were coupled either DCLK1-FL1Δ D511N or WT to a final density of approximately 7000 RU, followed by surface deactivation with 1 M ethanolamine. For each protein, coupling was performed at a concentration of 2 µM protein in 10 mM sodium acetate buffer pH 4.0, 1% (v/v) DMSO final, in the presence 10 µM of the moderate affinity compound FMF-03-149-01 (IC50 ~400 nM)[28] to help to stabilise the kinase domain during immobilsiation at low pH. A blank immobilisation was performed on the reference flow cell.
(§2) Binding experiments were performed at 18 °C in running buffer consisting of 20 mM HEPES, pH 7.4, 150 mM NaCl, 1 mM tris(2-carboxyethyl)phosphine (TCEP), 0.005% (v/v) Tween-P20, and 2% (v/v) DMSO. Compounds (10 mM stocks in 100% DMSO) were diluted in DMSO to 500 µM (DCLK1-NEG) or 25 µM (all other compounds) then in running buffer (without DMSO) to achieve the starting concentration with a final DMSO concentration of 2% (v/v). Samples were then serially titrated in running buffer containing 2% (v/v) DMSO to prepare each final concentration series (seven-point, three-fold serial dilution, 10 µM−13.7 nM for DCLK1-NEG, or 500−0.68 nM for all other compounds). Solutions were injected in multi-cycle format (in duplicate) without regeneration (contact time 80 s, flow rate 75 μL/min, dissociation time 600 s), with an extra wash (50% DMSO) after each injection.
(§3) Steady-state/kinetic binding data were fitted using the S200 BIAevaluation software (GE Healthcare). Sensorgrams from reference surfaces and blank injections were subtracted from the raw data (double-referencing), followed by solvent correction. Kinetic rate constants (kon and koff values) were obtained by fitting to 1:1 Langmuir binding model. Reported binding data represent mean ± SEM for three or four independent experiments. The dissociative half-life life (t1/2) for each inhibitor complex with DCLK1 was calculated from the fitted dissociation rate constant (koff), according to the equation 1 (t1/2 = ln(2)/koff.)

[2] = molecular target: T2, DCLK1-FL1Δ WT (Homo sapiens, UniProt O15075); assay: SPR binding to immobilised DCLK1-FL1Δ WT (phosphorylated); settings: for Kd / kon, kinetic fitting: SPR, mean ± SEM; for Kd: 18 °C, DCLK1 FL1Δ WT immobilised; for kon, kinetic fitting: DCLK1 FL1Δ WT; for koff: read-out: koff, kinetic fitting
T2 sequence (O15075 50-686 isoform O15075-2): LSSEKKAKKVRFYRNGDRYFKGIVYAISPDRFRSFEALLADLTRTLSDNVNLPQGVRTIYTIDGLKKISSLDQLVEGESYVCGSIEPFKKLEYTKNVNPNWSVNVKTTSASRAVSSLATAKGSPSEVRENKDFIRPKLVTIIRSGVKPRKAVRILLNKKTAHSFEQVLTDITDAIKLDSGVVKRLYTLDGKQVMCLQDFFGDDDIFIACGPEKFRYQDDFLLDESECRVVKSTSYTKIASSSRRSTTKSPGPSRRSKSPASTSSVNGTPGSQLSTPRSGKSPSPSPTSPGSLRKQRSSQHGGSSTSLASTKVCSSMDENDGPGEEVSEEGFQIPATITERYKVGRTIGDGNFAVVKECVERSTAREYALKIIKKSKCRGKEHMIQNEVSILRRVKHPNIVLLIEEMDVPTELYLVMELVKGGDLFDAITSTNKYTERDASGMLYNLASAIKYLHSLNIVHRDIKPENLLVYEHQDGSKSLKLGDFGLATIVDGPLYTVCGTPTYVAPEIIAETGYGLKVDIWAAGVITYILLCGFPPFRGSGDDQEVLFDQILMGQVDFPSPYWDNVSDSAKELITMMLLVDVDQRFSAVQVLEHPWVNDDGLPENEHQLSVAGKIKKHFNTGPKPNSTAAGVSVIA
Procedure: as §1, §2, §3

[3] = molecular target: T3, DCLK1-KD (residues 372-649) (Homo sapiens, UniProt O15075); assay: Thermal shift stability assay, DCLK1-KD; type: binding; settings: compound titration 2.5 to 40 μM
T3 construct: the DCLK1 kinase domain (DCLK1-KD; residues 372-649) by carrying out thermal stability assays; 8XHis tag with TEV protease cleavage site (N); made in house; host or cells: Escherichia coli C41(DE3)
T3 sequence (O15075 372-649 isoform O15075-2): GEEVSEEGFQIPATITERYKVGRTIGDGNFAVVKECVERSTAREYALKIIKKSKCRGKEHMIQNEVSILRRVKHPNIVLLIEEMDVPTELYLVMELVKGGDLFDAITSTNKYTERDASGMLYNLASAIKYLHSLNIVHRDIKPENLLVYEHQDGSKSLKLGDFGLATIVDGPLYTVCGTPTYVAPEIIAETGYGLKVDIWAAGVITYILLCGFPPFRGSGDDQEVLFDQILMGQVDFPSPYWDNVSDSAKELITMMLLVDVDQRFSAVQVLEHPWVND
Procedure: (§4) DCLK1 proteins were diluted in 150 mM NaCl, 20 mM Tris pH 8.0, 1 mM DTT to […] final concentration and assayed with the appropriate concentration of inhibitor in a total reaction volume of 25 μL. SYPRO Orange (Molecular Probes) was used as a fluorescence probe and detected at 530 nm. The data shown are representative of two independent experiments.

[4] = test system: DCLK1; settings: N-ethyl substitution at R4; cited from earlier work
[5] = molecular target: T4, DCLK1-KD G532V (Homo sapiens, UniProt O15075, G532V); assay: Thermal shift stability assay, DCLK1-KD G532V; type: binding; settings: XMD8-85 40 μM, versus DCLK1-KD WT
T4 construct: Truncated DCLK1 constructs, DCLK1-KD (residues 372-649); 8XHis tag with TEV protease cleavage site (N); made in house; host or cells: Escherichia coli C41(DE3)
T4 sequence (O15075 372-649 isoform O15075-2 G532V): T3 sequence (O15075 372-649 isoform O15075-2) with G161V
Procedure: as §4, with “Thermal shift stability assays were performed as described previously. DCLK1” for “DCLK1”

[6] = molecular target: T1, DCLK1-FL1Δ D511N; assay: Thermal shift stability assay, DCLK1-FL1Δ D511N; type: binding; settings: 40 μM
Procedure: as §4

[7] = molecular target: T5, DCLK1-FL1Δ D511N tubulin polymerisation (MAP function) (Homo sapiens, UniProt O15075, D511N); assay: Tubulin polymerisation and pelleting assay with DCLK1-FL1Δ D511N; type: biochemical; settings: 40 μM, pelleting / SDS-PAGE (Fig. 5d)
T5 construct: DCLK1-FL1Δ (residues 50-686); 8XHis tag with TEV protease cleavage site (N); made in house; host or cells: Escherichia coli C41(DE3)
T5 sequence (O15075 50-686 isoform O15075-2 D511N): T2 sequence (O15075 50-686 isoform O15075-2) with D462N
Procedure: Tubulin polymerisation assays were performed in buffer containing 80 mM PIPES at pH 6.9, 2.0 mM MgCl2, 0.5 mM EGTA, 2.5 mM β,γ-Methyleneguanosine 5’-triphosphate, and 10 μM tubulin and 5 μM DCLK1 for 1 h at 37 °C. For tubulin polymerisation in the presence of inhibitors, various concentrations of the inhibitors were first incubated with DCLK1 and allowed to stand on ice for 5 min before adding this mix to the tubulin polymerisation reaction. Following the tubulin polymerisation, the reaction mix was pelleted at 20,000 g for 20 min and the supernatant and the pellet fractions were run on a 12% SDS gel. The data shown are representative of two independent experiments.

[8] = molecular target: T5, DCLK1-FL1Δ D511N tubulin polymerisation (MAP function); assay: Fluorescence-based Tubulin Polymerisation Assay with DCLK1-FL1Δ D511N; type: biochemical; settings: 80 μM, fluorescence (Fig. 5e)
Procedure: Tubulin polymerisation assay were performed using the Microtubule Polymerisation/Depolymerisation Fluorescence Kit (Cytoskeleton #BK011P) in accordance with the manufacturer’s instructions. DCLK1 (4 μΜ) was added to 50 μL tubulin reaction mix containing Buffer 1 (80 mM PIPES at pH 6.9, 2.0 mM MgCl2, 0.5 mM EGTA, 10 μM fluorescent reporter), guanosine triphosphate stock solution at 100 mM, and tubulin (10 mg/ml) stock solution, as described by the manufacturer. Paclitaxel, a control of tubulin polymerisation, was tested at 3 μM, and Νocodazole, a tubulin polymerisation inhibitor, was tested at 80 μΜ. DCLK1-IN-1 was tested at 20 and 40 μΜ with buffer alone as controls. Polymerisation leads to fluorescence enhancement due to incorporation of a fluorescence reporter into polymerising microtubules and was measured by excitation at 355 nm and emission at 460 nm. Readings were taken every 20 s on EnVision Multimode Plate Reader. Each condition was tested in duplicate with two independent batches of protein.

[9] = KD, kinetic fitting (1:1 binding model), 18 °C, DCLK1 FL1Δ D511N immobilised, mean ± SEM
[10] = KD, steady state fitting, 18 °C, DCLK1 FL1Δ D511N immobilised, mean ± SEM
[11] = kinetic fitting (1:1 binding model)

COc1cc(N2CCN(C)CC2)ccc1Nc1ncc2c(n1)N(C)c1ccc(C)cc1C(=O)N2CC(F)(F)F [DCLK1-NEG]
Kd ([1]; KD (weak binding to DCLK1), top concentration 10 µM): > 10000 nM | Kd ([2]; steady state fitting): > 10000 nM | binding by shift in melting temperature (ΔTm) [3]: severely reduced binding to DCLK1-KD

CCN1C(=O)c2ccccc2N(C)c2nc(Nc3ccc(N4CCN(C)CC4)cc3OC)ncc21 [FMF-03-055-1]
Kd [1, 9]: 13 nM | Kd [1, 10]: 24 ± 1 nM | kon, kinetic fitting ([1]; mean ± SEM): 11 ± 4 1/Ms (x 10^5) | koff [1]: 0.014 ± 0.006 s⁻¹ | kon [1]: 1.1e+06 ± 400000 M⁻¹ s⁻¹ | Kd [2, 11]: 12 ± 2 nM | Kd ([2]; steady state fitting): 28 ± 2 nM | kon, kinetic fitting [2]: 9.6 ± 0.6 1/Ms (x 10^5) | koff [2]: 0.011 ± 0.001 s⁻¹ | enhanced potency on DCLK1 compared to XMD8-85 [4]: 5 fold

COc1cc(N2CCN(C)CC2)ccc1Nc1ncc2c(n1)N(C)c1ccccc1C(=O)N2C [XMD8-85]
Kd [1, 9]: 8 nM | Kd [1, 10]: 14 ± 1 nM | kon, kinetic fitting ([1]; mean ± SEM): 12.8 ± 0.5 1/Ms (x 10^5) | koff [1]: 0.01 ± 0.001 s⁻¹ | kon [1]: 1.28e+06 ± 50000 M⁻¹ s⁻¹ | Kd [2, 11]: 7.5 ± 0.3 nM | Kd ([2]; steady state fitting): 12 ± 2 nM | kon, kinetic fitting [2]: 22 ± 2 1/Ms (x 10^5) | koff [2]: 0.016 ± 0.001 s⁻¹ | binding by shift in melting temperature (ΔTm) [3]: bind DCLK1-KD | effect of Gly532 to valine mutation on binding affinity [5]: considerably reduces XMD8-85 binding affinity

COC(=O)Nc1nc2ccc(C(=O)c3cccs3)cc2[nH]1 [nocodazole]
binding to DCLK1 by thermal stability assay [6]: does not bind | effect on tubulin polymerisation [7]: inhibits tubulin polymerisation | effect on tubulin polymerisation [8]: inhibits tubulin polymerisation
